According to patent publication US7951364B2, “CaR receptor as a mediator of migratory cell chemotaxis and/or chemokinesis” (The General Hospital Corporation, priority 2000, dated 2011):
“And” between values parts separate entries of the source, which are not always exact repeats. Identical values can stand only once.

Key:
CaR = target: T1, CaR (Homo sapiens, UniProt P41180); experiment: Cytosolic calcium changes in purified monocytes (Indo-1/AM, flow cytometry); type: cell-based
T1 construct: endogenous in cells; host or cells: peripheral blood CD14+ monocytes, sorted by FACS
T1 sequence (P41180 20-1078): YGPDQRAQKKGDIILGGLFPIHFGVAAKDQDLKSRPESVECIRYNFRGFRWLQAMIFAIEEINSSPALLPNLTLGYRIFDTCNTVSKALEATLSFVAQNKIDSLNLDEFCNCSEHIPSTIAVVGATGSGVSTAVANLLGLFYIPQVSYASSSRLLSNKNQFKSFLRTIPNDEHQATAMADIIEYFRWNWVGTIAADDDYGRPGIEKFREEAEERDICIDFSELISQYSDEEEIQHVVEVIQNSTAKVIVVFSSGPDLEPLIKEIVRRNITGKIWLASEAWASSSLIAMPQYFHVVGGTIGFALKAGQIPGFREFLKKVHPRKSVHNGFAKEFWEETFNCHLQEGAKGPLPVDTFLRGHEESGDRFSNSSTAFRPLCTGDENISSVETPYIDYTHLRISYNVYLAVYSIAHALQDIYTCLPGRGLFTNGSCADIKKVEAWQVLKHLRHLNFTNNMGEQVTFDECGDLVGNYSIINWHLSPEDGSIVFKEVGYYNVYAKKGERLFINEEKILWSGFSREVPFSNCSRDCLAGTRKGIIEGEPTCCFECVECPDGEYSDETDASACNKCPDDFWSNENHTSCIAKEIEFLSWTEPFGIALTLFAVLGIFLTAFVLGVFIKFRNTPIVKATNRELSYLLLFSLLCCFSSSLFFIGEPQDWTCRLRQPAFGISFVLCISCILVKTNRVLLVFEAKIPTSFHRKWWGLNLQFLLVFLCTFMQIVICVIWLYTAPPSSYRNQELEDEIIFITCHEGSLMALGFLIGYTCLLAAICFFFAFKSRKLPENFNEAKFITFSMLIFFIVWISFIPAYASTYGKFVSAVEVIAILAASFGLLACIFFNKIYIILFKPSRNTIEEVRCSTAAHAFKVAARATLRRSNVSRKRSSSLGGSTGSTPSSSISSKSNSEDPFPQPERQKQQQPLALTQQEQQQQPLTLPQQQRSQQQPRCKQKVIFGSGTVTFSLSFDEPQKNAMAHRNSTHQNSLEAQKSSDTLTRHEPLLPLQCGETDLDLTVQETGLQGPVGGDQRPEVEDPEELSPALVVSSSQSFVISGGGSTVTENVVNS
Description: (§1) Preparation of peripheral blood CD14^+ monocytes. Low density cells were isolated from human and mouse peripheral blood using Ficoll-Hypaque (Pharmacia, Piscataway, N.J.). CD14^+ monocytes were purified by sorting on FACSVantage (Becton Dickinson, San Jose, Calif.) based on CD14 expression. Purified cells were incubated in either calcium-free medium (Hanks' Balanced Salt Solution 1×, CellGro, Hermdon. VA) or Iscove's Medium 1×(Mod) (CellGro, Herndon, Va.) which contains 1.5 mM Ca++. […] Cells were incubated for up to 24 hours in 5% CO2 humidified air. Monocytes were then detached from the plate using a cell scraper. All calcium concentrations indicated in the presentation of the data represent the total Ca^++ present in the basal medium plus any added Ca^++.
Cytosolic calcium changes. Purified monocytes were loaded with Indo-1/AM (Molecular Probes, Eugene, Oreg.). Cells were collected on FACSVantage for 0.30 sec to establish a baseline emission value for Indo-1/AM. […] Data acquisition then continued for up to 5 minutes.

CD14^+ monocytes = experiment: Transmigration assay (monocyte chemotaxis, transwell); type: cell-based, human
Description: as §1
Transmigration assays. Transwells (5 μm pore size polycarbonate membrane, 12 mm diameter) (Costar, Corning, N.Y.) were used to assess cell migration using an established methodology (25). The concentration of Ca^++ in IMDM (CellGro, Herndon, Va.) in the upper and lower chambers of the transwell were adjusted according to a checkerboard analysis of chemotaxis. Calcium concentrations varied from 0 mM to 6.5 mM. Purified monocytes (1×10^4) were then placed in the top chamber with 150 μl of IMDM (CellGro, Hemdon, Va.). 500 μl of the medium was added to the bottom of the well and supplemented with varying concentrations of Ca^++ or with Ca^++ plus 10 ng/ml of MCP-1, 100 ng/ml of SDF-1α or 10 ng/ml of MIP-1α (PeproTech, Rocky Hills, N.Y.). Cells were incubated at 37° C. for 3 hours. To study inhibition of chemotaxis, cells were subsequently incubated with wortmannin (1 μM for 20 minutes at 37° C.), herbimycin (1 μM for 20 minutes at 37° C.) or genistein (1 μg/ml for 20 minutes at 37° C.), before their use in transmigration assays. At the end of the experiment, cells were then harvested from the lower chamber and counted using a hemocytometer.

CCR-2 = experiment: Chemokine receptor expression on monocytes by flow cytometry: CCR-2; type: cell-based, human
Description: Chemokine receptor expression and flow cytometric analysis.
Table 1: Exposure of CD14^+ monocytes to Ca^++ enhances CCR2 expression in a dose dependent manner. Monocytes were exposed to varying concentrations of Ca^++ and to the selective CaR activator, NPS R-467 (1 μM), or to NPS S-467 (1 μM) in the presence of 1.5 mM Ca^++. The median fluorescence intensity for CCR2 expression was measured for each Ca^++ concentration and in the presence of NPS R-467 or S-467. Mean values +/−s.e.m. from three independent experiments are shown.

[1] = test system: monocytes (Mac-1 positive mononuclear cells); experiment: Biologic activity in vivo: subcutaneous injection, monocyte infiltration at injection site; set-up: species or system C57BL/6 mice; conditions: tissue excised 18 hours later, CaCl2 5.0 mM, NPS R-467 10 μM
Description: Biologic activity of ionic calcium in vivo. C57BL/6 mice (Jackson Laboratories) were injected subcutaneously at a marked, shaved spot on the abdomen with 20 μl of 5 mM CaCl2 or 20 μl of MCP-1 at a concentration of 10 ng/ml, with a combination of MCP-1 and 5 mM CaCl2 or with 10 μM NPS R-467 in PBS. Control mice were injected subcutaneously with 20 μl PBS alone. All subcutaneously injected agents contained less than 0.004 ng/ml of LPS by the limulus assay (Sigma) as previously described (Bleul, C. C., et al., J Exp Med, 1996, 184:1101-1109). Mice were sacrificed by CO2 asphyxiation 18 hours after injection, and injection sites were excised, snap-frozen and 4 μm cryosections were obtained and stained with hematoxylin and eosin. Immunocytochemistry was performed on the frozen sections using alkaline phosphatase-conjugated Mac-1 antibody (Pharmingen) as previously described and assessed by light microscopy (Bleul, C. C., et al., supra).

[2] = target: calcium-sensing receptor (CaR) (Homo sapiens, UniProt P41180); conditions: cited from earlier work

Compound: [Ca+2].[Cl-].[Cl-] [Ca^++, calcium chloride]
- Increase in cytosolic calcium (CaR; 4.5 mM Ca^++): Sustained increases
- Extracellular Ca^++ concentration giving maximal cytosolic Ca^++ response (CaR; monocytes, dose dependent): 4.5 mM
- Ca^++ concentration giving maximal chemotaxis (CD14^+ monocytes): 4.5 mM
- Ca^++ concentration giving peak migration in response to MCP-1 (CD14^+ monocytes): 4.5 mM
- Cell surface CCR-2 expression (CCR-2): up-modulation
- Mean fluorescent intensity -CCR-2 Mean +/− s.e.m. (CCR-2): 278 +/− 39 and 296 +/− 35 and 307 +/− 35
- Accumulation of mononuclear cells staining positive for Mac-1 at injection site [1]: Accumulation
- Ca^++ concentration at which activation of the receptor is maximal [2]: 5 mM
